From patent US20060083754A1, “Pharmaceutical combinations comprising corticoids and immunosuppressants for treating corticoid- and/or calcineurin inhibitors-resistant diseases” (priority 2003, published 2006)

How the values were obtained:
[1] = test system: human peripheral blood mononuclear cells (PBMC); experiment: T-cell proliferation assay (BrdU ELISA), PBMC stimulated with SEB; assay type: cell-based; settings: SEB (0.1 μg/ml)
[2] = test system: human peripheral blood mononuclear cells (PBMC); experiment: T-cell proliferation assay (BrdU ELISA), PBMC stimulated with anti-CD3 mAb + anti-CD28 mAb; assay type: cell-based; settings: anti-CD3 mAb (0.1 μg/ml)+anti-CD28 mAb (1 μg/ml); for inhibition at 10 µM: Homo sapiens, PBMC
[3] = Example 1, 200000 cells/well, HC 10 μM, ASM 30 nM, BETA 300 nM
[4] = Example 2, 100000 cells/well, HC 10 μM, ASM 30 nM, BETA 300 nM
[5] = Example 3, 50000 cells/well, HC 10 μM, ASM 30 nM, BETA 300 nM
[6] = Example 13, 200000 cells/well, HC 10 μM, FK 30 nM, BETA 300 nM

Structure (SMILES): C[C@@H]1C[C@H]2[C@@H]3CCC4=CC(=O)C=C[C@]4(C)[C@@]3(F)[C@@H](O)C[C@]2(C)[C@@]1(O)C(=O)CO [DEX, dexamethasone]
- Normalized OD (% STIM-C) ([1]; Example 9, 200000 cells/well, DEX 300 nM, ASM 30 nM, BETA 300 nM): 101.5 % STIM-C
- Normalized OD (% STIM-C) ([1]; Example 10, 100000 cells/well, DEX 300 nM, ASM 30 nM, BETA 300 nM): 86.4 % STIM-C
- Normalized OD (% STIM-C) ([1]; Example 12, 100000 cells/well, DEX 300 nM, ASM 30 nM): 105.7 % STIM-C
- Normalized OD (% STIM-C) ([1]; Example 26, 200000 cells/well, DEX 300 nM, CsA 300 nM, BETA 300 nM, DEX (300 nM)+CsA (30 nM), BETA (300 nM)+CsA (300 nM)): 101.5 % STIM-C
- Normalized OD (% STIM-C) ([2]; Example 6, 200000 cells/well, DEX 300 nM, ASM 30 nM, BETA 300 nM): 87.2 % STIM-C
- Normalized OD (% STIM-C) ([2]; Example 7, 100000 cells/well, DEX 300 nM, ASM 30 nM, BETA 300 nM): 76.5 % STIM-C
- Normalized OD (% STIM-C) ([2]; Example 8, 50000 cells/well, DEX 300 nM, ASM 30 nM, BETA 300 nM): 82.2 % STIM-C
- Normalized OD (% STIM-C) ([2]; Example 11, 100000 cells/well, DEX 300 nM, ASM 30 nM): 76.3 % STIM-C
- Normalized OD (% STIM-C) ([2]; Example 15, 200000 cells/well, DEX 300 nM, FK 30 nM, BETA 300 nM): 87.2 % STIM-C
- Normalized OD (% STIM-C) ([2]; Example 16, 100000 cells/well, DEX 300 nM, FK 30 nM, BETA 300 nM): 76.5 % STIM-C
- Normalized OD (% STIM-C) ([2]; Example 17, 50000 cells/well, DEX 300 nM, FK 30 nM, BETA 300 nM): 82.2 % STIM-C
- Normalized OD (% STIM-C) ([2]; Example 18, 100000 cells/well, DEX 300 nM, FK 30 nM): 76.3 % STIM-C
- Normalized OD (% STIM-C) ([2]; Example 23, 200000 cells/well, DEX 300 nM, CsA 300 nM, BETA 300 nM, DEX (300 nM)+CsA (30 nM), BETA (300 nM)+CsA (300 nM)): 87.2 % STIM-C
- Normalized OD (% STIM-C) ([2]; Example 24, 100000 cells/well, DEX 300 nM, CsA 300 nM, BETA 300 nM, DEX (300 nM)+CsA (30 nM), BETA (300 nM)+CsA (300 nM)): 76.5 % STIM-C
- Normalized OD (% STIM-C) ([2]; Example 25, 50000 cells/well, DEX 300 nM, CsA 300 nM, BETA 300 nM, DEX (300 nM)+CsA (30 nM), BETA (300 nM)+CsA (300 nM)): 82.2 % STIM-C
- Normalized OD (% STIM-C) ([2]; Example 27, 100000 cells/well, DEX 300 nM, CsA 300 nM): 76.3 % STIM-C

Structure (SMILES): C[C@]12CCC(=O)C=C1CC[C@@H]1[C@@H]2[C@@H](O)C[C@@]2(C)[C@H]1CC[C@]2(O)C(=O)CO [HC, hydrocortisone]
- Normalized OD (% STIM-C) ([1]; Example 4, 200000 cells/well, HC 10 μM, ASM 30 nM, BETA 300 nM): 89.0 % STIM-C
- Normalized OD (% STIM-C) ([1]; Example 5, 100000 cells/well, HC 10 μM, ASM 30 nM, BETA 300 nM): 100.5 % STIM-C
- Normalized OD (% STIM-C) ([1]; Example 22, 200000 cells/well, HC 10 μM, CsA 300 nM, BETA 300 nM, HC (10 μM)+CsA (30 nM), BETA (300 nM)+CsA (300 nM)): 89.0 % STIM-C
- Normalized OD (% STIM-C) [2, 3]: 106.8 % STIM-C
- Normalized OD (% STIM-C) [2, 4]: 92.0 % STIM-C
- Normalized OD (% STIM-C) [2, 5]: 109.0 % STIM-C
- Normalized OD (% STIM-C) [2, 6]: 106.8 % STIM-C
- Normalized OD (% STIM-C) ([2]; Example 14, 100000 cells/well, HC 10 μM, FK 30 nM, BETA 300 nM): 92.0 % STIM-C
- Normalized OD (% STIM-C) ([2]; Example 19, 200000 cells/well, HC 10 μM, CsA 300 nM, BETA 300 nM, HC (10 μM)+CsA (30 nM), BETA (300 nM)+CsA (300 nM)): 106.8 % STIM-C
- Normalized OD (% STIM-C) ([2]; Example 20, 100000 cells/well, HC 10 μM, CsA 300 nM, BETA 300 nM, HC (10 μM)+CsA (30 nM), BETA (300 nM)+CsA (300 nM)): 92.0 % STIM-C
- Normalized OD (% STIM-C) ([2]; Example 21, 50000 cells/well, HC 10 μM, CsA 300 nM, BETA 300 nM, HC (10 μM)+CsA (30 nM), BETA (300 nM)+CsA (300 nM)): 109.0 % STIM-C
- inhibition at 10 µM [2, 3]: -7.4%
- inhibition at 10 µM [2, 4]: < 17%
- inhibition at 10 µM [2, 5]: -9.7%
- inhibition at 10 µM [2, 6]: -7.4%
